From publication PMC9330593, “The Structural Flexibility of PR-10 Food Allergens” (International Journal of Molecular Sciences, 2022) come the findings set out here.

This assay deals with T1, Ara h 8.0101 (Arachis hypogaea, UniProt Q6VT83).
T1 construct: recombinant, 15N-labelled; N-terminal glycine (initiator Met apparently absent)
T1 sequence (Q6VT83 2-157): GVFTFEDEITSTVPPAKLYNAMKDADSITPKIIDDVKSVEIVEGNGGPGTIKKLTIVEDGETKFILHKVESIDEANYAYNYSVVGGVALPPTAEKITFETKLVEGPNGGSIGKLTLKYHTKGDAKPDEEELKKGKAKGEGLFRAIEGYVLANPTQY
The assay is described as follows: 1H-15N HSQC NMR titration. It is filed as binding.

A word on the Kd: it is the concentration at which binding is half-saturated. With `Oc1cc(O)c2c(c1)O[C@H](c1ccc(O)c(O)c1)[C@H](O)C2` [(-)-epicatechin], the Kd came out at 760 ± 370 µM.
